The source of these data is patent publication US9199931B2, “Pyrrolidine derivatives” (UNIVERSITE CLAUDE BERNARD LYON I, priority 2012, dated 2015).

Entries after “also recorded” stand apart in the source; their conditions may differ. A value given as a limit tells only on which side of the number the result lay.

Series [1] is described as follows: inflow through in vitro model of the choroidal epithelium (blood/cerebrospinal fluid barrier). The class given is in vitro ADME. To be noted: rat; basolateral exposure at 150 μm for 60 minutes, 37° C.; read-out: penetration rate of the peripheral blood compartment towards the brain compartment. The method, then:
A study was conducted with the BIP platform (Centre de Recherche en Neurosciences de Lyon, Lyons, France) for comparing the inflow of four compounds of interest through the cerebrospinal liquid/blood barrier. The study was carried out with an in vitro model of the choroidal epithelium restoring this interface. Choroidal cells were exposed by their basolateral pole to the compounds at a concentration of 150 μm for 60 minutes. The permeability of the cell monolayers to saccharose was analyzed in terms of these transfers, in order to detect possible toxicity of the compounds.
The epithelial cells are isolated from the choroidal plexus of a lateral ventricle taken on newly born rats as described earlier. The cells are sown on microporous supports (Transwell PC, pore size 0.4 μm, surface area […], diameter 6.5 mm), and cultivated in DMEM-F12 (1:1) supplemented with 10% FCS, 2 mM glutamine and 50 μg/ml gentamycin, as well as with various growth factors. The medium is renewed every two days until the day of experiment.
The transfer measurements were conducted under kinetic conditions (3 phases), with stirring (200 rpm), at 37° C., in a Ringer-Hepes buffer (RH). The volumes used in both compartments during the transfer are adjusted so as to minimize any hydrostatic pressure effect. The inserts are rinsed in RH before initiating the permeability study. For each compound, the transfer is carried out in parallel on three laminin inserts (without any cell) and three inserts with a cell monolayer.
Inflow measurements (from blood to the cerebrospinal fluid) were conducted during a kinetic study (20 min periods) for the four compounds of interest. Briefly, the compound of interest, diluted to 150 μm in RH is placed in the lower compartment of a multi-well cultivation plate, which reproduces the blood compartment. Transfer is initiated by placing a culture insert containing RH in the upper compartment, which corresponds to the cerebrospinal fluid. At regular intervals, an aliquot of the upper medium is taken and replaced with an equivalent volume of preheated RH at 37° C. […] The samples taken are analyzed by high performance liquid chromatography (HPLC) on an LC10 Shimadzu system chain (Duisburg, Germany), equipped with a spectrophotometric detector.
At the end of the transfer of the compounds of interest, [^14C]-saccharose is added as an aliquot into the upper compartment of the inserts. […] The media sampled in the wells and in the inserts at the end of the transfer of saccharose are analyzed by liquid scintillator counting in a β Canberra Packard TRI-GARB 1600TR counter. […]
The permeability coefficient of the cell monolayer Pe (in cm·min^−1) is calculated from the PS determined on laminin filters and filters with cells and by taking into account the exchange surface area. […]

Series [2] concerns extracellular glutamate (Glu) and aspartate (Asp) levels, striatum. Kind of series: in vivo intracerebral microdialysis: extracellular glutamate and aspartate levels in striatum. More on the design: species or system rat (Wistar). The settings on record: for effect on extracellular Glu and Asp levels: 1 mmol/L by reverse microdialysis, striatum, anesthetized rats; for action on glutamate when the glutamate levels are high: rat brain, initial glutamate level high, notably greater than 10 μmol/L; for Effect on Glu end/or Asp: striatum of anesthetized rats, reverse microdialysis; for effect of co-administration of CNQX on the compound's effects: compound at 1 mmol/L co-administered with CNQX, Asp levels are increased. From the text:
One of the widespread methodological approaches, both in academic laboratories and in industrial laboratories, and used for following the extracellular concentrations of glutamate (Glu) and of aspartate (Asp) before, during and after administration of pharmacological agents targeting their receptors is intracerebral microdialysis. This type of test was therefore used, in order to track the in vivo effects of the molecules according to the invention as compared with those of kainic acid, for which the synthesized molecules are structural analogues (substituted pyrrolidines).
Concentric microdialysis probes with a regenerated cellulose membrane (Spectra/Por hollow fiber; molecular cut off 6,000 Da, 225 μm in external diameter, a length of 3 mm, Spectrum Medical Industries, Los Angeles, Calif., USA) and tubings in molten silica (40 μm i.d×105 μm o.d., Polymicro Technology, Phoenix, Ariz., USA) were manufactured according to a design already published (Bert et al 1996, [26]). They were perfused with a flow rate of 1 μl/min with artificial cerebrospinal fluid or CSF (145.0 mM NaCl; […]; 1.0 mM MgCl2; 1.2 mM CaCl2; 0.45 mM NaH2PO4; 1.55 mM Na2HPO4; pH 7.4) by means of a Harvard pump (Model 22, South Natick, Mass., USA).
The in vivo microdialysis experiments were conducted on male rats of the Wistar strain with an average weight of about 300 g, (provider: Charles River, L'Arbresle, France) anesthetized with urethane (a dose of 1.4 g/kg via an i.p, route, provider: Sigma-Aldrich, St. Louis, Mo., USA). The probes were implanted dorso lateral striatum according to the following stereotaxic coordinates relatively to the bregma: antero-posteriority 0 mm, laterality […], depth […] under the cortical surface. The dialysates (samples) were collected from the beginning of the 4th hour after implantation of the probe. The samples were taken every 5 minutes in PCR tubes of 200 μl (Axygene, Union City, Calif., USA) and immediately frozen at −20° C. The samples were analyzed subsequently in order to determine the glutamate and aspartate contents. The pharmacological agents and the compounds according to the invention were administered in situ by reverse microdialysis by changing the perfusion at the inlet of the probe of the CSF without any pharmacological agent to the one containing the pharmacological agent(s) (Bert et al., 2002 [27]; Parrot et al 2003 [28]).
CE analyses were carried out with a P/ACE MDQ system (Beckman-Coulter, Fullerton, Calif., USA) equipped with an external detector LIF ZETALIF (Picometrics, Toulouse, France). Detection was achieved by fluorescence at a wavelength of 442 nm and generated with a He—Cd laser Omnichrome (Chino, Calif., USA). The emission intensity was collected at 490 nm. Before analysis, the samples were derived with naphthalene-2,3-dicarboxaldehyde with cyanide ions as a nucleophilic agent (pH 8.7; borate buffer 500 mM). The separations were conducted in a capillary of molten silica with an internal diameter of […] and an outer diameter of 375 μm with a length of 63 cm, with a useful length of 52 cm (Polymicro Technology) by using the procedure entirely detailed and validated earlier (Sauvinet et al., 2003 [29] Bert et al., 2002 (271). The Glu and Asp concentrations measured in striatum samples were above detection limits and were determined by interpolation by means of standard ranges.
All the reagents of the neurochemical study (except for the compound according to the invention) were purchased from Sigma-Aldrich (St Louis, Mo., USA). The mother-solutions of the synthesized molecules, of the kainate (KA, agonist of the KA receptors for glutamate), CNQX, 6-cyano-7-nitroquinoxaline-2,3(1H,4H)-dione (CAS-No. 115066-14-3, antagonist of KA receptors), from Glu and Asp were aliquoted to 1 or 0.1 mM and stored at −30° C. After their administration, the tested pharmacological agents were diluted in artificial CSF. […]

The target of series [3] is CB1 (receptors of type 1 to endocannabinoids, CB-1) (Homo sapiens, UniProt P21554). The experiment in a line: in vitro specific binding inhibition (radioligand, 60 receptors). The settings on record: n = 2, read-out: % of inhibition of the control specific binding at 10 μM, CB1 towards its agonistic ligand. The method, then: In order to determine the target receptors of the compounds according to the invention, experiments of specific binding inhibition were conducted in vitro. Pharmacology in vitro: tests of specific bindings.
Chain of CB1 (receptors of type 1 to endocannabinoids, CB-1) (P21554 whole entry): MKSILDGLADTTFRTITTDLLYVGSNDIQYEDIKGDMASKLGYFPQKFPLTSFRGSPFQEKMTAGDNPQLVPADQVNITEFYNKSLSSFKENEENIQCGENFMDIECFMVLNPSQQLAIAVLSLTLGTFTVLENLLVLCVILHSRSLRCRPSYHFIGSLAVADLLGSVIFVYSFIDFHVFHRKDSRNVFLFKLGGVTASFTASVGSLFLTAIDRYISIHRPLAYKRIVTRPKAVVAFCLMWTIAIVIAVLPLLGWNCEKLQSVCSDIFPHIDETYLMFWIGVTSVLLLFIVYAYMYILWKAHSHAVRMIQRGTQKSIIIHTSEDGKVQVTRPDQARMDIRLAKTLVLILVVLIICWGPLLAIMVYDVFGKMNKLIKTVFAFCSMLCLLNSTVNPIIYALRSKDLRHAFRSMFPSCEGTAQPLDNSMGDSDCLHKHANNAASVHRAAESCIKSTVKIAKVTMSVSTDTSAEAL
Sixty receptors were tested in the study according to standardized methods by using their specific radioligand as reported earlier.
The results may be expressed as a % of the specific control bond [(measured specific bond/control specific bond)×100] and as a % of inhibition of the specific control bond [100−(measured specific bond/control specific bond)×100] obtained in the presence of one of the two tested compounds (I.2 and I.4).
These experiments (Table 2 hereafter) have shown that the compounds I.2 and I.4 modify the specific binding of a control agonist of the receptors of type 1 to endocannabinoids (CB-1) (according to the test described in reference).

Series [4] deals with glutamate levels in the striatum. The settings on record: ex vivo and in vivo preparations, refs [89-92]; cited from earlier work.

In the case of `CN[C@H](C(=O)O)[C@H]1CNC[C@H]1O` (racemic) [Compound I.5, (3,4-cis).α-N-methylamino-(4-hydroxy-pyrrolidin-3-yl)acetic acid], the melting point was determined as 192 °C.
Take `N[C@H](C(=O)O)[C@H]1CNC[C@H]1O` [Compound I.1, (αS,3R,4S) α-amino-(4-hydroxy-pyrrolidin-3-yl)acetic acid]: the Papp B→A at 60 min, 150 μm in series [1] is at most 5 ×10⁻⁶ cm/s. In series [2], the “effect on extracellular Glu and Asp levels” value is recorded as “effects similar to KA”; the “action on glutamate when the glutamate levels are high” value (from here on “action on glutamate”) is given as “inhibitory actions on the glutamate”. Further, in series [2] (summary of preliminary results), the “Pharmacological potentiality for modulating the Glu system” value (from here on “Pharmacological potentiality”) is on record as “Yes” and the “Effect on Glu end/or Asp” value is listed as “Yes”.
On to `N[C@@H](C(=O)O)[C@@H]1CNC[C@@H]1O` [Compound I.2, (αR,3S,4R) α-amino-(4-hydroxy-pyrrolidin-3-yl)acetic acid], for which the Papp B→A at 60 min, 150 μm in series [1] is at most 5 ×10⁻⁶ cm/s. Moreover, in series [2], the “effect on extracellular Glu and Asp levels” value was “a reduction in the Glu and Asp levels; also recorded: a reduction in the cerebral extracellular glutamate levels”; the “effect of co-administration of CNQX on the compound's effects” value (from here on “effect of co-administration of CNQX”) is “seems to partly attenuate its effects”; the “action on glutamate” value is on record as “inhibitory actions on the glutamate”. In series [2] (summary of preliminary results), the “Pharmacological potentiality” value was “Yes” and the “Effect on Glu end/or Asp” value was “Yes”. For the same molecule, the “Action through the KA receptors” value in series [2] (summary of preliminary results, co-administration of CNQX (antagonist of KA receptors)) is on record as “yes for Asp”. The inhibition at 10 µM in series [3] worked out at 29%.
As to `CNC(=O)[C@H](NC(C)=O)[C@@H]1CNC[C@@H]1O` [Compound I.3, α-acetamido-(4-hydroxy-pyrrolidin-3-yl)-N-methylacetamide(αR,3S,4R)], the Papp B→A at 60 min, 150 μm in series [1] was at most 5 ×10⁻⁶ cm/s. Moreover, in series [2], the “effect on extracellular Glu and Asp levels” value was “an effect similar to that of kainate”; the “effect of co-administration of CNQX” value is listed as “seems to partly attenuate its effects”; the “action on glutamate” value is “inhibitory actions on the glutamate”. In series [2] (summary of preliminary results), the “Pharmacological potentiality” value is “yes” and the “Effect on Glu end/or Asp” value is given as “yes”.
Turning to `CNC(=O)[C@@H](N)[C@H]1CNC[C@H]1O` [Compound I.4, .-amino-(4-hydroxy-pyrrolidin-3-yl)-N-methylacetamide(αS,3R,4S)], the Papp B→A at 60 min, 150 μm in series [1] was at most 5 ×10⁻⁶ cm/s. Further, in series [2], the “effect on extracellular Glu and Asp levels” value is “a reduction in the Glu and Asp levels; also recorded: a reduction in the cerebral extracellular glutamate levels”; the “effect of co-administration of CNQX” value is given as “seems to partly attenuate its effects”; the “action on glutamate” value is given as “inhibitory actions on the glutamate”. In series [2] (summary of preliminary results), the “Pharmacological potentiality” value is listed as “yes” and the “Effect on Glu end/or Asp” value is on record as “yes”. Also, the inhibition at 10 µM in series [3] was 29%.
For the molecule `C=C(C)[C@H]1CN[C@H](C(=O)O)[C@H]1CC(=O)O` [KA, kainate, reference compound], the “effect on extracellular Glu and Asp levels” value in series [2] is recorded as “affected”.
As to `Cc1c(C(=O)c2cccc3ccccc23)c2cccc3c2n1[C@H](CN1CCOCC1)CO3` [WIN 55, 212-2], the “effect on glutamate levels in the striatum” value in series [4] is given as “induces a reduction in the glutamate levels”.
Regarding `Cc1c(C(=O)NN2CCCCC2)nn(-c2ccc(Cl)cc2Cl)c1-c1ccc(Cl)cc1` [rimonabant], in series [4], the “effect on glutamate levels in the striatum” value is on record as “cause an increase or do not affect the extracellular glutamate levels”.
